{"source": "paper PMC6107127", "about": "“Characteristics of the mitochondrial and cellular uptake of MPP^+, as probed by the fluorescent mimic, 4'I-MPP^+” (PLoS ONE, 2018)", "key": {"HepG2 cells": {"tested_on": "HepG2 cells", "assay": "Effect of CGP37157 and KBR7943 on 4'I-MPP+-mediated mitochondrial membrane depolarization (TMRM)", "type": "cell-based, human", "experimental": "HepG2 cells grown in glass-bottomed plates for two days were treated with 50 μM CGP37157 or KBR7943 in KRB-HEPES for 30 min followed by 50 nM TMRM in KRB-HEPES for 45 min. Then plates were mounted on the stage of the microscope and mitochondrial membrane depolarization upon the treatment with 100 μM 4'I-MPP^+ was measured as a function of time as detailed above. The effect of CGP37157 on the 4'I-MPP^+ mediated mitochondrial membrane depolarization at longer time periods was monitored by observing the reduction of TMRM fluorescence from 0 to 4 h incubations in the presence or absence of CGP37157. HepG2 cells were incubated with or without 10 μM CGP37157 followed by 50 nM TMRM, and finally with 4'I-MPP^+ (100 μM, 0 or 4 h) and the intracellular TMRM fluorescence was recorded. Controls were carried out using an identical protocol except that either CGP37157 or 4'I-MPP^+ were omitted from the incubation media."}, "MN9D cells": {"tested_on": "MN9D cells", "assay": "Protection of MN9D cells from MPP+ and 4'I-MPP+ toxicities (MTT)", "type": "cell-based, mouse", "conditions": "0–50 μM CGP37157 30 min, then 80 μM MPP+ or 25 μM 4'I-MPP+ for 8 h", "experimental": "Cell viability was determined by the MTT [3-(4,5-dimethylthiazol-2-yl)-2,5-diphenyltetrazolium bromide)] assay. Briefly, cells were seeded on 96-well plates and allowed to grow to about 70–80% confluence. Prior to the experiment, culture media was replaced with KRB-HCO3^- containing desired concentrations of MPP^+ or 4'I-MPP^+ and incubated for 16 h at 37 °C. After the incubation, 10 μL of 5 mg/mL MTT solution was added to each well and incubated for 2 h at 37 °C. The resulting formazan was solubilized by the addition of 210 μL detergent solution [50% DMF/H2O (v/v), 20% SDS (w/v)] followed by incubation at 37 °C for 12 h. The cell viabilities were determined by quantifying solubilized formazan by measuring the difference in the absorbance at 570 nm and 650 nm. Results were expressed as % viability of MPP^+ or 4'I-MPP^+ treated cells with respect to control cells, which were treated under the same conditions except in the absence of the MPP^+ or 4'I-MPP^+.\nFig 7 CGP37157 protect MN9D cells from MPP^+ and 4'I-MPP^+ toxicities. Cells were pre-incubated with 0–50 μM CGP37157 for 30 min followed by 80 μM MPP^+ or 25 μM 4'I-MPP^+ for 8 h. The relative cell viabilities were determiner using MTT assay, as detailed above. Data are presented as mean ± SD (n = 6). ٭p<0.0001 and #p<0.005 versus no CGP37157 controls."}, "[1]": {"tested_on": "isolated intact MN9D mitochondria", "assay": "Effects of Ca2+ and inhibitors on MN9D mitochondrial uptake of 4'I-MPP+", "set-up": "species or system mouse", "conditions": "for 4'I-MPP+ uptake inhibition: 200 μM 4'I-MPP+", "experimental": "Intact MN9D cell mitochondria were incubated with 200 μM 4'I-MPP^+ for 45 min at 37 °C in 0, 500 or 1000 nM Ca^2+ containing KCl buffer. When mNCX inhibitors (KBR7943, 2APB and CGP37157) were used, mitochondrial suspensions were initially incubated with 10, 25 or 50 μM inhibitor in KCl buffer for 10 min at 37 °C and then with 200 μM 4'I- MPP^+ for 45 min at 37 °C. After the incubations, samples were centrifuged at 7,000 x g at 4 °C for 10 min and the mitochondrial pellets were treated with 75 μL of 0.1 M HClO4. […] To visualize the effect of CGP37157 on the mitochondrial uptake of 4'I-MPP^+ in live cells, HepG2 cells grown in glass-bottomed plates were incubated with 50 μM CGP37157 for 30 min initially and then with 100 μM 4'I-MPP^+ and 200 nM MitoTracker Green FM in KRB-HEPES for 1 h at 37 °C. After incubation cells were washed and reconstituted with KRB-HEPES, pH 7.4 and 4'I-MPP^+ and MitoTracker Green FM fluorescence images of cells were recorded as detailed above. Controls were treated under the same experimental conditions, except that CGP37157 was omitted from the initial incubation.\nS4 Fig. Effects of Benzamil, Verapamil, FFA, and ruthenium red on the MN9D mitochondrial uptake of 4'I-MPP+. MN9D mitochondrial suspensions were initially incubated with a 50 μM concentration of the desired agent (10 μM Ruthenium red) in KCl buffer for 10 min at 37 °C and then incubated with 200 μM 4'I-MPP+ for 45 min at 37 °C. After the incubations, the […] 4'I-MPP+ contents were quantified by RP-HPLC-UV as described in Material and methods. The data are represented as mean ± S.D (n=3).\n(also on this page, place not known: contol 10uM Ru red BenzamilVerapamil FFA 4I' MPP+ uptake (nmoles/mg) 0.0 0.1 0.2 0.3 0.4 0.5)\n(1 picture or pasted object on this page, not shown here)"}}, "data": [{"smiles": "O=C1CSC(c2ccccc2Cl)c2cc(Cl)ccc2N1", "note": "(stereo not drawn) [CGP37157]", "values": [{"measurement": "effect on 4'I-MPP+-induced mitochondrial membrane depolarization, longer incubation", "setting": "HepG2 cells; 10 μM CGP37157, 100 μM 4'I-MPP+, lasting at least 4 h", "value": "slows down"}, {"measurement": "effect on 4'I-MPP+ mitochondrial membrane depolarization", "setting": "HepG2 cells; 50 μM pre-treatment 30 min, 100 μM 4'I-MPP+", "value": "significantly reduced"}, {"measurement": "protection from MPP+ and 4'I-MPP+ toxicities", "setting": "MN9D cells", "value": "effectively protects"}, {"measurement": "4'I-MPP+ uptake inhibition", "setting": "[1]; 10 μM inhibitor", "value": "about 40%"}, {"measurement": "4'I-MPP+ uptake inhibition", "setting": "[1]; 25 μM inhibitor", "value": "~ 45%"}, {"measurement": "effect on uptake of 4'I-MPP+", "setting": "[1]; 50 μM inhibitor at 200 μM 4'I-MPP+", "value": "inhibit the uptake"}]}]}
